Source: patent US8883827B2, “Azole derivatives as WTN pathway inhibitors” (Oslo University Hospital HF, priority 2009, dated 2014)

What was measured:
Assay type in all cases: cell-based
canonical Wnt signaling [1] = test: IC50 in STF/REN HEK293 cells, 50% Wnt3a-CM; conditions: Homo sapiens; STF/REN HEK293, 50% Wnt3a-CM, 24 h
Procedure: IC50 values were calculated using STF/REN HEK293 cells prepared essentially according to Example 22. Briefly, HEK293 cells (80,000 cells per well) were seeded in 48-well plates coated with poly-L lysine. 24 hours after seeding, the cells were incubated for an additional 24 hours with various compound concentrations in 50% Wnt3a-CM. After compound exposure, the cells were lysed and the firefly luciferase and Renilla activities were measured on a 20/20n Luminometer (Turner BioSystems) as described in the Dual-Glo™ Luciferase Assay System Technical Manual (Promega).
(§1) XLfit (idbs) was used to determine the IC50 and GI50 values in inhibition experiments. The data were fit to the following formulae:
IC50: Langmuir Binding Isotherm: fit=((A+(B*x))+(((C−B)*(1−exp((−1*D)*x)))/D)) res=(y−fit)

APC mutant cell lines = test: MTS cell proliferation assay, Table 6, mean; conditions: 10 μM, 72 h; for Ratio of means: APC mutant cell lines versus control cell lines; for Mean proliferation (APC mutant cell lines): ten APC mutant colorectal lines
Source text: (§2) Control cell lines used were HeLa cells (cell growth not controlled by canonical Wnt signalling) and colorectal cancer cell lines LS174T and HCT116 (with mutant β-catenin N-terminal phosphorylation sites). Target cell lines used were colorectal cancer cell lines WiDr, LoVo, HCT-8, HCT-15, COL0205, DLD-1, HT-29, SW620, SW1463, SW480 which all carry a mutant APC gene. Target cells, along with L Wnt3a-expressing cells and HEK293 cells, were purchased from ATCC (American Type Culture Collection) and maintained according to the supplier's recommendations. Wnt3a containing conditioned media (Wnt3a-CM) from L Wnt3a expressing cells was harvested as described by ATCC.
(§3) For the experiment giving the results shown in Table 6, cells were exposed to cell culture medium (including 10% FBS) containing 10 μM of the compound to be tested 24 hours after seeding (3000 cells on 96-well plates). Medium was changed daily. After 72 hours, an MTS assay (CellTiter 96® AQueous Non-Radioactive Cell Proliferation Assay—Promega) was carried out according to the standard procedure. 0.1% DMSO was used as a control.
(§4) The quantity of reduced MTS product (as measured by the absorbance at 490 nm) is directly proportional to the number of living cells in the culture and thus allows a direct comparison of cell proliferation in each case. DMSO was used as a control. The following formula was used to determine single well relative A490 sample values: ((Sample A490−Average A490t0)*100)/(Average A490t720.1% DMSO control−Average A490t0)
(§5) Data shown are A490-percentage values relative to the DMSO control, calculated as described above, and represent averages from 2 to 4 independent experiments (except SW1463 cells treated with IWR-1 which reports only a single experiment). Compounds IWR-1 and XAV939 are known Wnt pathway inhibitors.

control cell lines = test: MTS cell proliferation assay, Table 6, mean; conditions: HeLa, HCT116, LS174T; 10 μM, 72 h
Source text: as §2, §3, §4, §5

SW1463 = test: MTS cell proliferation assay, Table 6; conditions: 10 μM, 72 h, relative to DMSO control
Source text: as §2, §3, §4, §5

WiDr = test: MTS cell proliferation assay, Table 6; conditions: 10 μM, 72 h, relative to DMSO control
Source text: as §2, §3, §4, §5

SW620 = test: MTS cell proliferation assay, Table 6; conditions: 10 μM, 72 h, relative to DMSO control
Source text: as §2, §3, §4, §5

HCT116 = test: MTS cell proliferation assay, Table 6; conditions: HCT116 (control); 10 μM, 72 h; relative to DMSO control
Source text: as §2, §3, §4, §5

HeLa cells = test: MTS cell proliferation assay, Table 6; conditions: HeLa (control); 10 μM, 72 h; relative to DMSO control
Source text: as §2, §3, §4, §5

LS174T = test: MTS cell proliferation assay, Table 6; conditions: LS174T (control); 10 μM, 72 h; relative to DMSO control
Source text: as §2, §3, §4, §5

COLO205 = test: MTS cell proliferation assay, Table 6; conditions: 10 μM, 72 h, relative to DMSO control
Source text: as §2, §3, §4, §5

SW480 = test: MTS cell proliferation assay, Table 6; conditions: 10 μM, 72 h, relative to DMSO control
Source text: as §2, §3, §4, §5

HT-29 = test: MTS cell proliferation assay, Table 6; conditions: 10 μM, 72 h, relative to DMSO control
Source text: as §2, §3, §4, §5

HCT-8 = test: MTS cell proliferation assay, Table 6; conditions: 10 μM, 72 h, relative to DMSO control
Source text: as §2, §3, §4, §5

DLD-1 = test: MTS cell proliferation assay, Table 6; conditions: 10 μM, 72 h, relative to DMSO control
Source text: as §2, §3, §4, §5

LoVo = test: MTS cell proliferation assay, Table 6; conditions: 10 μM, 72 h, relative to DMSO control
Source text: as §2, §3, §4, §5

HCT-15 = test: MTS cell proliferation assay, Table 6; conditions: 10 μM, 72 h, relative to DMSO control
Source text: as §2, §3, §4, §5

canonical Wnt signaling [2] = test: ST-Luc (SuperTOPFlash) Luciferase assay in HEK293 cells, 30% Wnt3a-CM; conditions: Homo sapiens, HEK293; 10 μM compound, 30% Wnt3a-CM, 24 h; relative to DMSO control
Procedure: Inhibition of Wnt signaling by compound No. 1 was quantified in vitro using a Luciferase assay in HEK293 cells transiently transfected with SuperTOPFlash plasmid (ST-Luc) (Veeman M T et al., Curr. Biol. 13: 680-685, 2003) at concentrations from 0.1-10 μM. HEK293 cells were purchased from ATCC (American Type Culture Collection) and maintained according to suppliers recommendations.
Transfection was performed using 80000 HEK293 cells seeded in 48-well plates coated with poly-L lysine. After 24 hours, 0.25 μg total plasmid DNA (0.23 μg SuperTOPFlash+0.02 μg pRL-TK (Renilla)—Promega) and 0.75 μl FuGENE6 (Roche) was combined in a total volume in 25 μl Opti-MEM® (Invitrogen) as described by the manufacturer (Roche). The transfection mixture was added to the plated cells and media were changed after 24 hours.
The Luciferase assay was performed by incubating transfected cells for 24 hours with various concentrations of compound No. 1 in 30% Wnt3a-CM (Wnt3a containing conditioned medium from L Wnt3a cells was harvested as described by ATCC). All treated reporter cells were finally lysed and the firefly luciferase and Renilla activities were measured on a 20/20n Luminometer (Turner BioSystems) as described in the Dual-Glo™ Luciferase Assay System Technical Manual (Promega).
HEK293 cells were transfected, grown and assayed as described in Example 22. 24 hours after seeding, the cells were incubated for an additional 24 hours with 10 μM concentrations of compounds in 30% Wnt3a-CM.
The percent activities shown in Table 3 are calculated relative to DMSO as a control. Some values shown are averages of multiple measurements. Compound XAV939 (Novartis; Huang et al., Nature (2009), 461, pp. 614-20) which is used as a positive control, has an activity of 7%.

[3] = tested on: SW480 colon carcinoma cells; test: MTS cell proliferation assay, Table 5; conditions: Homo sapiens; SW480, 10 μM, 72 h; relative to DMSO control; read-out: Cell proliferation (%) for test compounds
Procedure: For the experiment giving the results shown in Table 5, cells (3000 per well) were seeded on 96 well plates (eight replicates per treatment). After 24 hours, and daily thereafter, cell culture medium (including 10% FBS) was mixed with 10 μM compounds or with 0.1% DMSO vehicle and then added to the wells. Sixteen wells of seeded control cells, defining incubation time zero (t0=24 hour after cell seeding), were incubated with 20 μl substrate in 100 μl phenol free D-MEM (Invitrogen) for 2 hours, as described in the CellTiter 96® AQueous Non-Radioactive Cell Proliferation Assay protocol (Promega). The A490 was recorded. The treatment samples were likewise measured after 72 hours.
as §4
The proliferation of SW480 cells (in percent) is the A492 value relative to that of the DMSO control.

SW480 cells = test: Growth inhibition (GI50) MTS assay; conditions: Homo sapiens, 72 h
Procedure: Growth inhibition curves were prepared using SW480 cells, prepared essentially according to Example 23. SW480 cells (3000 cells per well) were seeded on 96 well plates (eight replicates per treatment). 24 hours later and daily thereafter, cell culture media (including 10% FBS) was mixed with various compound concentrations or with 0.1% DMSO vehicle and then added to the wells. Sixteen wells of seeded control cells, defining incubation time zero (to =24 hour after cell seeding), were incubated with […] substrate in 100 μl of phenol-free D-MEM (Invitrogen) for 2 hours, as described in the CellTiter 96® AQueous Non-Radioactive Cell Proliferation Assay protocol (MTS, Promega). The A490 was recorded. The treatment samples were likewise measured after 72 hours. The following formula was used to determine the single well relative A490 sample values: ((Sample A490−Average A490t0)*100)/(Average A490t720.1% DMSO control−Average A490t0)
as §1
GI50: Eadie-Hofstee Model: fit=(A+((B*x)/((C*(D+1))+x))) inv=(((y−A)*(C*(D+1)))/((A+B)−y)) res=(y−fit)

Structure (SMILES) | IC50 (canonical Wnt signaling [1]) [nM] | Ratio of means (APC mutant cell lines) | Mean proliferation (APC mutant cell lines) (APC mutant cell lines) [%] | Mean proliferation (control cell lines) (control cell lines) [%] | Cell proliferation (%) (SW1463) | Cell proliferation (%) (WiDr) | Cell proliferation (%) (SW620) | Cell proliferation (%) (HCT116) | Cell proliferation (%) (HeLa cells) | Cell proliferation (%) (LS174T) | Cell proliferation (%) (COLO205) | Cell proliferation (%) (SW480) | Cell proliferation (%) (HT-29) | Cell proliferation (%) (HCT-8) | Cell proliferation (%) (DLD-1) | Cell proliferation (%) (LoVo) | Cell proliferation (%) (HCT-15) | activity at 10 µM (canonical Wnt signaling [2]) [%] | activity at 10 µM [3] [%] | GI50 (SW480 cells) [nM]
Cc1ccc(-c2nnc(CSc3nnc(-c4ccncc4)n3-c3ccccc3Cl)o2)cc1 [compound 60] | < 100 | 0.58 | 55 | 95 | 12 | 70 | 50 | 87 | 92 | 105 | 53 | 59 | 58 | 51 | 78 | 67 | 54 | 17.3 | 49 | 
Cc1ccc(-c2noc(CSc3nnc(-c4ccncc4)n3-c3ccccc3Cl)n2)cc1 [compound 43] | 160 | 0.56 | 52 | 92 | 1 | 76 | 33 | 86 | 92 | 99 | 33 | 51 | 63 | 69 | 76 | 64 | 54 | 7.8 |  | 8000
Oc1nc(-c2ccc(C(F)(F)F)cc2)nc2c1CSCC2 [XAV939, reference compound] | < 100 | 1.01 | 101 | 99 | 64 | 94 | 102 | 109 | 92 | 97 | 116 | 103 | 100 | 105 | 102 | 129 | 90 | 7 |  | 
O=C(Nc1cccc2cccnc12)c1ccc(N2C(=O)[C@@H]3[C@H](C2=O)[C@@H]2C=C[C@H]3C2)cc1 [IWR-1, reference compound] |  | 0.83 | 62 | 74 | 57 | 61 | 48 | 83 | 77 | 63 | 55 | 62 | 33 | 70 | 97 | 73 | 64 |  |  | 
